molecular target: IRAK4 (Homo sapiens (Human), UniProt Q9NWZ3); test: IRAK4 Inhibition Assay; format: biochemical; settings: ATP 500 μM; IRAK4 0.6 nM; 60 min at room temperature
Method: The assays were performed in U-bottom 384-well plates. […] The reaction was initiated by the combination of IRAK4 with substrates and test compounds. The reaction was incubated at room temperature for 60 min. and terminated by adding 45 μL of 35 mM EDTA to each sample. The reaction mixture was analyzed on the Caliper LABCHIP® 3000 (Caliper, Hopkinton, Mass.) by electrophoretic separation of the fluorescent substrate and phosphorylated product.

Chain of IRAK4 (Q9NWZ3 whole entry, species assumed): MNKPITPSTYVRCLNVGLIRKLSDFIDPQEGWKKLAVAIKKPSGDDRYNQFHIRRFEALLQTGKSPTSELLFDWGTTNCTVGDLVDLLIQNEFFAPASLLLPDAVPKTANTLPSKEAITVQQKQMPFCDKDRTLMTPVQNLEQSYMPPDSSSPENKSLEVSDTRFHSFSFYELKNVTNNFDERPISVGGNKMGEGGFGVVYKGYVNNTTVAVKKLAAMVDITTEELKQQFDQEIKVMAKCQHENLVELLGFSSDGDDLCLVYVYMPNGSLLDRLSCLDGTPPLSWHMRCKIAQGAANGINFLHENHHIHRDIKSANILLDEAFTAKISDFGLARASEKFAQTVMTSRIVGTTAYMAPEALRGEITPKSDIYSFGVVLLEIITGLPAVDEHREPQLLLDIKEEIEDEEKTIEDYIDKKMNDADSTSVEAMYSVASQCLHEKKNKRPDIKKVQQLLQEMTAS

Question: Which IC50 does the source give for `CC(C)Nc1cc(Nc2ccc3ncsc3c2)ncc1C(=O)N[C@H]1CC[C@H](C(=O)NC2CC2)CC1` [Example 227] here?
Answer: Its IC50 is 2.7 nM.

Question: For `CC(C)Nc1cc(Nc2ccc3ncsc3c2)ncc1C(=O)N[C@H]1CC[C@H](C(N)=O)CC1` [Example 228], which IC50 is on record?
Answer: The IC50 was 2.4 nM.

Question: `CNC(=O)C12CCC(NC(=O)c3cnc(Nc4ccc5ncsc5c4)cc3NC(C)C)(CC1)CC2` [Example 229] was tested. Which IC50 did it give?
Answer: The IC50 was 3.4 nM.

Question: For `CC(C)(O)[C@H](F)CNC(=O)c1cnc(Nc2ccc3ncsc3c2)cc1NC1CCOCC1F` (stereo partly shown) [Example 230], which IC50 is on record?
Answer: Its IC50 is 5.1 nM.

Question: How did the IC50 turn out when `CC(C)(O)[C@H](F)CNC(=O)c1cnc(Nc2ccc3ncsc3c2)cc1NC1CCOCC1F` (stereo partly shown) [Example 231] was run?
Answer: The IC50 was 3.4 nM.

Question: Which IC50 does the source give for `CC1COCCC1Nc1cc(Nc2ccc3ncsc3c2)ncc1C(=O)NC[C@@H](F)C(C)(C)O` (stereo partly shown) [Example 232] here?
Answer: Its IC50 is 35.7 nM.

Question: Which IC50 does the source give for `CC1COCCC1Nc1cc(Nc2ccc3ncsc3c2)ncc1C(=O)NC[C@@H](F)C(C)(C)O` (stereo partly shown) [Example 233] here?
Answer: Its IC50 is 7.4 nM.

Question: For `CC(C)(O)[C@H](F)CNC(=O)c1cnc(Nc2ccc3ncsc3c2)cc1NC1COCCC1F` (stereo partly shown) [Example 235], which IC50 is on record?
Answer: Its IC50 is 1.7 nM.

Question: How did the IC50 turn out when `CC(C)(O)[C@H](F)CNC(=O)c1cnc(Nc2ccn3nccc3n2)cc1NC1CC1` [Example 236] was run?
Answer: The IC50 was 4.7 nM.

Question: `CC(C)(O)[C@H](F)CNC(=O)c1cnc(Nc2ccn3nccc3n2)cc1NC1CCOCC1` [Example 237] was tested. Which IC50 did it give?
Answer: The IC50 was 3.1 nM.

Question: With `CC(C)Nc1cc(Nc2ccn3ncc(Cl)c3n2)ncc1C(=O)NC[C@@H](F)C(C)(C)O` [Example 243] as the compound, how does the IC50 read?
Answer: The IC50 was 5.5 nM.

Question: With `CC(C)Nc1cc(Nc2ccn3ncc(F)c3n2)ncc1C(=O)NC[C@@H](F)C(C)(C)O` [Example 244] as the compound, how does the IC50 read?
Answer: Its IC50 is 1.9 nM.

Question: For `CC(C)(O)[C@H](F)CNC(=O)c1cnc(Nc2ccn3nccc3n2)cc1NC1CCCC1F` (stereo partly shown) [Example 245], which IC50 is on record?
Answer: Its IC50 is 2.8 nM.

Question: `CC(C)(O)[C@H](F)CNC(=O)c1cnc(Nc2ccn3nccc3n2)cc1NC1CCCC1F` (stereo partly shown) [Example 246] was tested. Which IC50 did it give?
Answer: Its IC50 is 5.5 nM.

Question: Which IC50 does the source give for `CC(C)(O)[C@H](F)CNC(=O)c1cnc(Nc2ccn3nccc3n2)cc1NC1CCC(F)C1` (stereo partly shown) [Example 247] here?
Answer: The IC50 was 2.7 nM.

Question: `CC(C)(O)[C@H](F)CNC(=O)c1cnc(Nc2ccn3nccc3n2)cc1NC1CCC(F)C1` (stereo partly shown) [Example 248] was tested. Which IC50 did it give?
Answer: The IC50 was 3.1 nM.

Question: Which IC50 does the source give for `CC(C)(O)[C@H](F)CNC(=O)c1cnc(Nc2ccn3ncc(F)c3n2)cc1NC1CC1` [Example 251] here?
Answer: The IC50 was 3.2 nM.

Question: Which IC50 does the source give for `CC(C)(O)[C@H](F)CNC(=O)c1cnc(Nc2ccn3ncc(F)c3n2)cc1NC1CCC1` [Example 252] here?
Answer: The IC50 was 4.2 nM.

Question: For `CC(C)(F)CNc1cc(Nc2ccn3nccc3n2)ncc1C(=O)NC[C@@H](F)C(C)(C)O` [Example 253], which IC50 is on record?
Answer: Its IC50 is 5.2 nM.

Question: With `CC(C)(O)[C@H](F)CNC(=O)c1cnc(Nc2ccn3nccc3n2)cc1NC1CCC(F)C1` (stereo partly shown) [Example 254] as the compound, how does the IC50 read?
Answer: The IC50 was 2.5 nM.

Question: For `CC(C)(O)[C@H](F)CNC(=O)c1cnc(Nc2ccn3nccc3n2)cc1NC1CCC(F)C1` (stereo partly shown) [Example 255], which IC50 is on record?
Answer: The IC50 was 2.4 nM.

Question: For `CC(C)(O)[C@H](F)CNC(=O)c1cnc(Nc2ccn3nccc3n2)cc1NC1COCCC1F` (stereo partly shown) [Example 256], which IC50 is on record?
Answer: The IC50 was 8.8 nM.

Question: `CC(C)(F)CNc1cc(Nc2ccn3ncc(F)c3n2)ncc1C(=O)NC[C@@H](F)C(C)(C)O` [Example 257] was tested. Which IC50 did it give?
Answer: Its IC50 is 3.1 nM.

Question: For `CC(C)Nc1cc(Nc2ccn3ncc(C#N)c3n2)ncc1C(=O)NC[C@@H](F)C(C)(C)O` [Example 261], which IC50 is on record?
Answer: Its IC50 is 3.6 nM.

Question: With `CC(C)Nc1cc(Nc2ccn3ncc(Cl)c3n2)ncc1C(=O)NC[C@@H](F)C(C)(C)O` [Example 262] as the compound, how does the IC50 read?
Answer: Its IC50 is 2.9 nM.

Question: How did the IC50 turn out when `CC(C)(O)[C@H](F)CNC(=O)c1cnc(Nc2ccn3nccc3n2)cc1NC1CC(F)C1` (stereo partly shown) [Example 263] was run?
Answer: Its IC50 is 4.2 nM.

Question: For `CC(C)(F)CNc1cc(Nc2ccn3ncc(Cl)c3n2)ncc1C(=O)NC[C@@H](F)C(C)(C)O` [Example 264], which IC50 is on record?
Answer: Its IC50 is 4.6 nM.

Question: Which IC50 does the source give for `CC(C)(O)[C@H](F)CNC(=O)c1cnc(Nc2ccn3ncc(F)c3n2)cc1NC1CC(F)(F)C1` [Example 265] here?
Answer: The IC50 was 3.3 nM.

Question: With `Cc1cc2nc(Nc3cc(NC4CCC(F)C4)c(C(=O)NC[C@@H](F)C(C)(C)O)cn3)ccn2n1` (stereo partly shown) [Example 267] as the compound, how does the IC50 read?
Answer: Its IC50 is 7.4 nM.

system: TLR2 induced IL-6 in peripheral blood mononuclear cells (PBMCs); test: PBMC TLR2 Induced IL-6 Assay; format: cell-based, human; settings: Homo sapiens, PBMC, 5 h, human PBMCs, 10 μg/ml lipoteichoic acid for 5 hours, IL-6 by ELISA; value without asterisk; read-out: Cell IC50
Outline: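 IL-6 ELISA of supernatants after a 5 h challenge with the TLR2 agonist lipoteichoic acid (10 μg/ml). Before stimulation, human PBMCs (250000 cells/well; RPMI, 10% heat-inactivated FCS) received compound for 30 min at 37° C. Values given as IC50 or EC50.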

Question: How did the IC50 turn out when `CC(C)Nc1cc(Nc2ccc3ncsc3c2)ncc1C(=O)N[C@H]1CC[C@H](C(=O)NC2CC2)CC1` [Example 227] was run?
Answer: Its IC50 is 138 nM.

Question: For `CC(C)Nc1cc(Nc2ccc3ncsc3c2)ncc1C(=O)N[C@H]1CC[C@H](C(N)=O)CC1` [Example 228], which IC50 is on record?
Answer: Its IC50 is 392 nM.

Question: Which IC50 does the source give for `CNC(=O)C12CCC(NC(=O)c3cnc(Nc4ccc5ncsc5c4)cc3NC(C)C)(CC1)CC2` [Example 229] here?
Answer: The IC50 was 488 nM.

Question: Which IC50 does the source give for `CC(C)(O)[C@H](F)CNC(=O)c1cnc(Nc2ccc3ncsc3c2)cc1NC1COCCC1F` (stereo partly shown) [Example 235] here?
Answer: Its IC50 is 263 nM.

Question: With `CC(C)(O)[C@H](F)CNC(=O)c1cnc(Nc2ccn3nccc3n2)cc1NC1CC1` [Example 236] as the compound, how does the IC50 read?
Answer: The IC50 was 346 nM.

Question: `CC(C)(O)[C@H](F)CNC(=O)c1cnc(Nc2ccn3nccc3n2)cc1NC1CCOCC1` [Example 237] was tested. Which IC50 did it give?
Answer: Its IC50 is 222 nM.

Question: Which IC50 does the source give for `CC(C)Nc1cc(Nc2ccn3ncc(F)c3n2)ncc1C(=O)NC[C@@H](F)C(C)(C)O` [Example 244] here?
Answer: Its IC50 is 156 nM.

Question: With `CC(C)(O)[C@H](F)CNC(=O)c1cnc(Nc2ccn3nccc3n2)cc1NC1CCCC1F` (stereo partly shown) [Example 245] as the compound, how does the IC50 read?
Answer: The IC50 was 390 nM.

Question: How did the IC50 turn out when `CC(C)(O)[C@H](F)CNC(=O)c1cnc(Nc2ccn3ncc(F)c3n2)cc1NC1CC1` [Example 251] was run?
Answer: Its IC50 is 369 nM.

Question: `CC(C)(O)[C@H](F)CNC(=O)c1cnc(Nc2ccn3ncc(F)c3n2)cc1NC1CCC1` [Example 252] was tested. Which IC50 did it give?
Answer: The IC50 was 173 nM.

Question: Which IC50 does the source give for `CC(C)(F)CNc1cc(Nc2ccn3nccc3n2)ncc1C(=O)NC[C@@H](F)C(C)(C)O` [Example 253] here?
Answer: The IC50 was 308 nM.

Question: For `CC(C)(O)[C@H](F)CNC(=O)c1cnc(Nc2ccn3nccc3n2)cc1NC1COCCC1F` (stereo partly shown) [Example 256], which IC50 is on record?
Answer: Its IC50 is 587 nM.

Question: For `CC(C)(F)CNc1cc(Nc2ccn3ncc(F)c3n2)ncc1C(=O)NC[C@@H](F)C(C)(C)O` [Example 257], which IC50 is on record?
Answer: Its IC50 is 321 nM.

Question: Which IC50 does the source give for `CC(C)Nc1cc(Nc2ccn3ncc(C#N)c3n2)ncc1C(=O)NC[C@@H](F)C(C)(C)O` [Example 261] here?
Answer: The IC50 was 126 nM.

Question: For `CC(C)(O)[C@H](F)CNC(=O)c1cnc(Nc2ccn3nccc3n2)cc1NC1CC(F)C1` (stereo partly shown) [Example 263], which IC50 is on record?
Answer: The IC50 was 190 nM.

Question: How did the IC50 turn out when `CC(C)(F)CNc1cc(Nc2ccn3ncc(Cl)c3n2)ncc1C(=O)NC[C@@H](F)C(C)(C)O` [Example 264] was run?
Answer: Its IC50 is 384 nM.

Question: `CC(C)(O)[C@H](F)CNC(=O)c1cnc(Nc2ccn3ncc(F)c3n2)cc1NC1CC(F)(F)C1` [Example 265] was tested. Which IC50 did it give?
Answer: The IC50 was 217 nM.

Question: `Cc1cc2nc(Nc3cc(NC4CCC(F)C4)c(C(=O)NC[C@@H](F)C(C)(C)O)cn3)ccn2n1` (stereo partly shown) [Example 267] was tested. Which IC50 did it give?
Answer: Its IC50 is 468 nM.

same assay, conditions: human PBMCs, 10 μg/ml lipoteichoic acid for 5 hours, IL-6 by ELISA; value without asterisk; read-out: Cell IC50

Question: How did the IC50 turn out when `CC(C)(O)[C@H](F)CNC(=O)c1cnc(Nc2ccc3ncsc3c2)cc1NC1CCOCC1F` (stereo partly shown) [Example 230] was run?
Answer: Its IC50 is 274 nM.

Question: How did the IC50 turn out when `CC(C)(O)[C@H](F)CNC(=O)c1cnc(Nc2ccc3ncsc3c2)cc1NC1CCOCC1F` (stereo partly shown) [Example 231] was run?
Answer: The IC50 was 88 nM.

Question: Which IC50 does the source give for `CC1COCCC1Nc1cc(Nc2ccc3ncsc3c2)ncc1C(=O)NC[C@@H](F)C(C)(C)O` (stereo partly shown) [Example 232] here?
Answer: Its IC50 is 697 nM.

Question: With `CC1COCCC1Nc1cc(Nc2ccc3ncsc3c2)ncc1C(=O)NC[C@@H](F)C(C)(C)O` (stereo partly shown) [Example 233] as the compound, how does the IC50 read?
Answer: Its IC50 is 469 nM.

Question: `CC(C)Nc1cc(Nc2ccn3ncc(Cl)c3n2)ncc1C(=O)NC[C@@H](F)C(C)(C)O` [Example 243] was tested. Which IC50 did it give?
Answer: Its IC50 is 567 nM.

Question: Which IC50 does the source give for `CC(C)(O)[C@H](F)CNC(=O)c1cnc(Nc2ccn3nccc3n2)cc1NC1CCCC1F` (stereo partly shown) [Example 246] here?
Answer: The IC50 was 262 nM.

Question: With `CC(C)(O)[C@H](F)CNC(=O)c1cnc(Nc2ccn3nccc3n2)cc1NC1CCC(F)C1` (stereo partly shown) [Example 247] as the compound, how does the IC50 read?
Answer: Its IC50 is 170 nM.

Question: How did the IC50 turn out when `CC(C)(O)[C@H](F)CNC(=O)c1cnc(Nc2ccn3nccc3n2)cc1NC1CCC(F)C1` (stereo partly shown) [Example 248] was run?
Answer: Its IC50 is 176 nM.

Question: For `CC(C)(O)[C@H](F)CNC(=O)c1cnc(Nc2ccn3nccc3n2)cc1NC1CCC(F)C1` (stereo partly shown) [Example 254], which IC50 is on record?
Answer: The IC50 was 131 nM.

Question: With `CC(C)(O)[C@H](F)CNC(=O)c1cnc(Nc2ccn3nccc3n2)cc1NC1CCC(F)C1` (stereo partly shown) [Example 255] as the compound, how does the IC50 read?
Answer: Its IC50 is 86 nM.

Question: Which IC50 does the source give for `CC(C)Nc1cc(Nc2ccn3ncc(Cl)c3n2)ncc1C(=O)NC[C@@H](F)C(C)(C)O` [Example 262] here?
Answer: The IC50 was 141 nM.
